Consider 9 molecules from patent publication US20130079383A1, “Lipid Compounds Targeting VLA-4” (ARROWHEAD RESEARCH CORPORATION, priority 2011, published 2013).

Structures can show the parent of a compound that is named as a salt.

The IC50 is the concentration at which inhibition is half-maximal. High values mean a need for much substance, low ones inhibition by little substance.

The target of one experiment is T1, VLA-4 (Homo sapiens, UniProt P05556+P13612).
T1 construct: Jurkat cells express high levels of VLA-4 on their membrane surface; host or cells: Jurkat Clone E6-1
T1 sequence (P13612 34-1032): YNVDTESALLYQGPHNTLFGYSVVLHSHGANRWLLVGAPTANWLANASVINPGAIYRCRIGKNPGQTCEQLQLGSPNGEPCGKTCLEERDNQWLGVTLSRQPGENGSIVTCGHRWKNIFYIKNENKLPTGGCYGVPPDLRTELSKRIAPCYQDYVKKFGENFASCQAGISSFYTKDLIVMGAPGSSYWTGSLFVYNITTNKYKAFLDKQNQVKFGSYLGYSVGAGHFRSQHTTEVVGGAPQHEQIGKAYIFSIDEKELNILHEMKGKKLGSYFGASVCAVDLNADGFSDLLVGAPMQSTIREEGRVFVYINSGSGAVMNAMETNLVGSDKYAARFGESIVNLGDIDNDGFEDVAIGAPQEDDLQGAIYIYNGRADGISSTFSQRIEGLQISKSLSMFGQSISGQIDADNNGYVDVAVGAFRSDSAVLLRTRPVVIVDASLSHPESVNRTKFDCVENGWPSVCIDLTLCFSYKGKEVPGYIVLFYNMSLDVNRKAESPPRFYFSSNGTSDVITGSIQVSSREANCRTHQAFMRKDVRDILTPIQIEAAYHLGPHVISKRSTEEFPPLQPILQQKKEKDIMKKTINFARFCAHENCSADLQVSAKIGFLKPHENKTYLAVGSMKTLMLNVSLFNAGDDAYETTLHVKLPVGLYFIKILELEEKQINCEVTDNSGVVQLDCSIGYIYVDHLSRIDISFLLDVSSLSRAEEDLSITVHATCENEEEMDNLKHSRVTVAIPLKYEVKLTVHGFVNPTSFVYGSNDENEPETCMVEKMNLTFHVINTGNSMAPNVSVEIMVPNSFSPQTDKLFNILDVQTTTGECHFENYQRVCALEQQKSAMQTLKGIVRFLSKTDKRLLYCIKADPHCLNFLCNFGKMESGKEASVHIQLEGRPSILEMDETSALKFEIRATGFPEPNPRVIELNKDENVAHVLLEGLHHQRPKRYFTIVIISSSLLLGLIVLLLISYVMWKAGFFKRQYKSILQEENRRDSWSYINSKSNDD
T1 sequence (P05556 21-798): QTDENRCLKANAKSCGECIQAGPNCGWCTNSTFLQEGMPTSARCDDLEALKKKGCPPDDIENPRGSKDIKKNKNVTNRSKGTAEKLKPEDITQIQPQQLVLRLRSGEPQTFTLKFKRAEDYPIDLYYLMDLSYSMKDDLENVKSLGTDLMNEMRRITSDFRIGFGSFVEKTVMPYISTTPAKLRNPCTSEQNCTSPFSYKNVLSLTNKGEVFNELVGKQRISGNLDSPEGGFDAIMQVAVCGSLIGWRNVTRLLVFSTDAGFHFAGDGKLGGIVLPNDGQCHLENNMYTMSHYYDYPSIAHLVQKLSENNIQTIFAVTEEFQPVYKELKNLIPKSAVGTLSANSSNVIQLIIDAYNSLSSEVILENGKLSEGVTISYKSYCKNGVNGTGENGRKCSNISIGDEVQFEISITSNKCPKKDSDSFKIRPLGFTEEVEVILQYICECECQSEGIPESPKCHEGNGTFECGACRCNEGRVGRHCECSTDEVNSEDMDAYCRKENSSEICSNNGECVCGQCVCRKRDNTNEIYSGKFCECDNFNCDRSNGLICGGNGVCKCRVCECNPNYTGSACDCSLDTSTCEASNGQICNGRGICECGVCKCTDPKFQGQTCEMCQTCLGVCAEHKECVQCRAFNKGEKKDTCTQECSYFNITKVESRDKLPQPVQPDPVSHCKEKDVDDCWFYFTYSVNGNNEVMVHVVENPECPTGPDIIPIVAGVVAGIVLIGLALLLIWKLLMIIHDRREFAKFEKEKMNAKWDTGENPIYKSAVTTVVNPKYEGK
Nature of the experiment: VLA-4/VCAM binding (adhesion) assay in Jurkat cells. The class given is cell-based. Conditions: Jurkat cells activated with 0.5 mM Mn2+, VCAM-1-coated plates, 45 min at 37° C. As for the experimental part:
The following adhesion assay has been reported previously and used in this invention with minor modification. See U.S. Pat. Nos. 6,229,011 and 6,380,387 both of which are incorparated herein by reference in their entirety. […] Each assay was conducted in a 96-well plate with VCAM-1 used as the counter ligand for the cells (i.e., VCAM-1 was bound to the surface of the wells). More specifically, 96-well high-binding F96 Maxisorp immuno microtiter plates (Nunc) were coated overnight with 25 ng/well of VCAM-1. On the day of the experiment, plates were blocked for 1 h with PBS buffer containing 1% nonfat dry milk to eliminate nonspecific binding. The plates were then washed with DPBS (Dulbecco's Phosphate Buffered Saline) and blotted dry. Any excess liquid was carefully aspirated from the wells. As a control, the small molecule antagonist (27) for inhibiting VLA-4 referred to above was added to control wells in buffer containing 4% DMSO and diluted down the plate, typically in a concentration range of 1000 nM to 0.2 nM. Jurkat Clone E6-1 cells (ATCC) were labeled with 100 μg/mL 6-carboxyfluorescein diacetate, a fluorescent dye, and then activated with RPMI 1640 medium containing 0.5 mM of the divalent cation Mn^2+ and 0.05% bovine serum albumin. It is noted that this activation is needed to achieve maximal binding for the ligand and may simulate the activation of integrins by cytokines and chemokines in vivo. […] To assess VLA-4 inhibition of the VLA-4 targeting lipids (from the examples), Jurkat cells (expressing high levels of VLA-4) were added to the VCAM-1-coated plates to a final concentration of 2×10^5 cells/well in 96-well plates and allowed to incubate with the test lipids (from the examples) for 45 min at 37° C. After removing unbound cells by gently washing the wells with PBS, the fluorescence signal from the bound cells was read on a Tecan Safire2 microplate reader at 450 nm. Points were plotted and the IC50s of each lipid were determined by regression analysis using the linear portion of the concentration-response curve.
The molecule `CCCCCCCCCCCCOCC(C[N+](C)(C)CCCNC(=O)CCOCCOCCOCCOCCOCCOCCOCCOCCOCCC(=O)NCCC1(C(=O)N[C@@H](Cc2ccc(NC(=O)c3c(Cl)cccc3Cl)cc2)C(=O)O)CCCC1)OCCCCCCCCCCCC` (stereo partly drawn) [Example 1, [2,3-bis(dodecyloxy)propyl][3-[[3-[2-[2-[2-[2-[2-[2-[2-[2-[[3-[[2-[1-[[[(S)-1-carboxy-2-[4-(2,6-dichloro-benzoylamino)phenyl]ethyl]amino]carbonyl]cyclopentyl]ethyl]amino]-3-oxopropyl]oxy]ethoxy]ethoxy]ethoxy]ethoxy]ethoxy]ethoxy]ethoxy]ethoxy]-1-oxopropyl]amino]propyl]dimethylaminium trifluoroacetate] had a half-inhibitory concentration (IC50) of 587 nM.

In the case of `CCCCCCCCCCCCOCC(C[N+](C)(C)CCCNC(=O)CCC(=O)NCCOCCOCCOCCOCCOCCOCCOCCOCCOCCOCCOCCOCCC(=O)NCCC1(C(=O)N[C@@H](Cc2ccc(NC(=O)c3c(Cl)cccc3Cl)cc2)C(=O)O)CCCC1)OCCCCCCCCCCCC` (stereo partly drawn) [Example 2, [2,3-bis(dodecyloxy)propyl][3-[[4-[[2-[2-[2-[2-[2-[2-[2-[2-[2-[2-[2-[2-[[3-[[2-[1-[[[(S)-1-carboxy-2-[4-(2,6-dichloro-benzoylamino)phenyl]ethyl]amino]carbonyl]cyclopentyl]ethyl]amino]-3-oxopropyl]oxy]ethoxy]ethoxy]ethoxy]ethoxy]ethoxy]ethoxy]ethoxy]ethoxy]ethoxy]ethoxy]ethoxy]ethyl]amino]-1-4-dioxobutyl]amino]propyl]dimethylaminium trifluoroacetate], the IC50 was 942 nM.

`CCCCCCCCCCCCCCCCOCC(C[N+](C)(C)CCCNC(=O)CCOCCOCCOCCOCCOCCOCCOCCOCCOCCC(=O)NCCC1(C(=O)N[C@@H](Cc2ccc(NC(=O)c3c(Cl)cccc3Cl)cc2)C(=O)O)CCCC1)OCCCCCCCCCCCCCCCC` (stereo partly drawn) [Example 3, [[2,3-bis(hexadecyloxy)propyl][3-[[3-[2-[2-[2-[2-[2-[2-[2-[2-[[3-[[2-[1-[[[(S)-1-carboxy-2-[4-(2,6-dichloro-benzoylamino)phenyl]ethyl]amino]carbonyl]cyclopentyl]ethyl]amino]-3-oxopropyl]oxy]ethoxy]ethoxy]ethoxy]ethoxy]ethoxy]ethoxy]ethoxy]ethoxy]-1-oxopropyl]amino]propyl]dimethylaminium trifluoroacetate] had an IC50 of 1000 nM.

For the molecule `CCCCCCCCCCCCCCCCOCC(C[N+](C)(C)CCCNC(=O)CCC(=O)NCCOCCOCCOCCOCCOCCOCCOCCOCCOCCOCCOCCOCCC(=O)NCCC1(C(=O)NC(Cc2ccc(NC(=O)c3c(Cl)cccc3Cl)cc2)C(=O)O)CCCC1)OCCCCCCCCCCCCCCCC` [Example 4, [2,3-bis(hexadecyloxy)propyl][3-[[4-[[2-2-[2-[2-[2-[2-[2-[2-[2-[2-[2-[2-[[3-[[2-[1-[[[(S)-1-carboxy-2-[4-(2,6-dichloro-benzoylamino)phenyl]ethyl]amino]carbonyl]cyclopentyl]ethyl]amino]-3-oxopropyl]oxy]ethoxy]ethoxy]ethoxy]ethoxy]ethoxy]ethoxy]ethoxy]ethoxy]ethoxy]ethoxy]ethoxy]ethyl]amino]-1,4-dioxobutyl]amino]propyl]dimethylaminium trifluoroacetate], the IC50 came to 308 nM.

`CCCCCCCCCCCCCCCCOCC(CN(C)CCCNC(=O)CCC(=O)NCCOCCOCCOCCOCCOCCOCCOCCOCCOCCOCCOCCOCCC(=O)NCCC1(C(=O)N[C@@H](Cc2ccc(NC(=O)c3c(Cl)cccc3Cl)cc2)C(=O)O)CCCC1)OCCCCCCCCCCCCCCCC` (stereo partly drawn) [Example 5, (S)-Alpha-[[[1-[2-[[3-[2-[2-[2-[2-[2-[2-[2-[2-[2-[2-[2-[2-[[4-[[3-[[2,3-bis(hexadecyloxy)propyl]methylamino]propyl]amino]-1,4-dioxobutyl]amino]ethoxy]ethoxy]ethoxy]ethoxy]ethoxy]ethoxy]ethoxy]ethoxy]ethoxy]ethoxy]ethoxy]ethoxy]-1-oxoproyl]amino]ethyl]cyclopentyl]carbonyl]amino]-4-(2,6-dichlorobenzoylamino) benzenepropanoic acid]: the IC50 amounted to 6 nM.

`CCCCCCCCCCCCCCCCCCOCC(C[N+](C)(C)CCCNC(=O)CCOCCOCCOCCOCCOCCOCCOCCOCCOCCC(=O)NCCC1(C(=O)N[C@@H](Cc2ccc(NC(=O)c3c(Cl)cccc3Cl)cc2)C(=O)O)CCCC1)OCCCCCCCCCCCCCCCCCC` (stereo partly drawn) [Example 6, [2,3-bis(octadecyloxy)propyl][3-[[3-[2-[2-[2-[2-[2-[2-[2-[2-[[3-[[2-[1-[[[(S)-1-carboxy-2-[4-(2,6-dichloro-benzoylamino)phenyl]ethyl]amino]carbonyl]cyclopentyl]ethyl]amino]-3-oxopropyl]oxy]ethoxy]ethoxy]ethoxy]ethoxy]ethoxy]ethoxy]ethoxy]ethoxy]-1-oxopropyl]amino]propyl]dimethylaminium bromide] yielded an IC50 of 133 nM.

In the case of `CCCCCCCCCCCCCCCCCCCCOCC(C[N+](C)(C)CCCNC(=O)CCOCCOCCOCCOCCOCCOCCOCCOCCOCCC(=O)NCCC1(C(=O)N[C@@H](Cc2ccc(NC(=O)c3c(Cl)cccc3Cl)cc2)C(=O)O)CCCC1)OCCCCCCCCCCCCCCCCCCCC` (stereo partly drawn) [Example 7, [2,3-bis(icosanyloxy)propyl][3-[[3-[2-[2-[2-[2-[2-[2-[2-[2-[[3-[[2-[1-[[[(S)-1-carboxy-2-[4-(2,6-dichloro-benzoylamino)phenyl]ethyl]amino]carbonyl]cyclopentyl]ethyl]amino]-3-oxopropyl]oxy]ethoxy]ethoxy]ethoxy]ethoxy]ethoxy]ethoxy]ethoxy]ethoxy]-1-oxopropyl]amino]propyl]dimethylaminium bromide], the IC50 was 89 nM.

For the molecule `CCCCCCCCCCCCCCCCCCCCOCC(CN(C)CCCNC(=O)CCOCCOCCOCCOCCOCCOCCOCCOCCOCCC(=O)NCCC1(C(=O)N[C@@H](Cc2ccc(NC(=O)c3c(Cl)cccc3Cl)cc2)C(=O)O)CCCC1)OCCCCCCCCCCCCCCCCCCCC` (stereo partly drawn) [Example 8, (S)-Alpha-[[[1-[2-[[3-[2-[2-[2-[2-[2-[2-[2-[2-[[3-[[3-[[2,3-bis(icosanyloxy)propyl]methylamino]propyl]amino]-3-oxopropyl]oxy]ethoxy]ethoxy]ethoxy]ethoxy]ethoxy]ethoxy]ethoxy]ethoxy]-1-oxoproyl]amino]ethyl]cyclopentyl]carbonyl]amino]-4-(2,6-dichlorobenzoylamino)benzenepropanoic acid], the IC50 was 1000 nM.

The subject of another experiment is KIF11 mRNA. In words: KIF11 mRNA knockdown in MV4-11 cells by LNP-formulated KIF11 siRNA (relative to 18S ribosomal RNA). Format: cell-based, human. Conditions: added with no formulation as a control. As for the experimental part: FIG. 1. Bar graph illustrating KIF11 mRNA knockdown in MV4-11 cells (relative to 18S ribosomal RNA as a control) with various LNP formulations containing KIF11 siRNA (formulation nos. 54F, 54I, 54L, and 54O).
The human cancer cell line MV4-11 was maintained in media supplemented with 10% heat-inactivated Fetal Bovine Serum (HI-FBS; Gibco/BRL, Gaithersburg, Md.) and 2 mM L-glutamine (Gibco/BRL).
MV4-11 suspension cells in 1 ml of culturing medium were seeded in 24-well plates 24 h before transfection and RNA quantification targeting siRNA were formulated in LNPs and directly added to the medium for transfection. Cells were then collected for RNA quantification.
Sample collection and mRNA purification for in vitro studies were performed as follows. MV4-11 cells were lysed directly on the plate with RNA lysis buffer (Qiagen). Suspension cells were collected into tubes and spun down at 2,000 rpm for 1 min, then the cell pellets were lysed with RNA lysis buffer (Qiagen). […]
Total RNA from all collected samples was purified using Qiagen RNeasy Kit following the manufacturer's protocol. Relative quantification of target mRNA and 18S ribosomal RNA gene expression was carried out with cDNA Reverse Transcription Reagents from Applied Biosystems followed by Taqman Gene Expression Assays (Applied Biosystems) using the manufacturer's protocol. […]
`Cc1cccc(Cl)c1C(=O)N[C@@H](Cc1ccc(NC(=O)c2c(Cl)cccc2Cl)cc1)C(=O)O` [Example 27, (S)-2-(2-Chloro-6-methyl-benzoylamino)-3-[4-(2,6-dichloro-benzoylamino)-phenyl]-propionic acid]: the “knockdown of KIF11 expression” value is given as “no knockdown”.
